# Values quoted from earlier work as cited in patent US20260108502A1, “ORAL DELIVERY FORMULATIONS USING SELF EMULSIFYING GRANULES AND LIPID BASED GRANULES” (BOARD OF REGENTS, THE UNIVERSITY OF TEXAS SYSTEM, priority 2024, published 2026).
compound,measurement,value
CC(C)c1nc(CN(C)C(=O)N[C@H](C(=O)N[C@@H](Cc2ccccc2)C[C@H](O)[C@H](Cc2ccccc2)NC(=O)OCc2cncs2)C(C)C)cs1 [Ritonavir],strongest basic pKa,2.84
